pIC50: −log10 of the molar value. Entries after “also recorded” stand apart in the source; their conditions may differ. Blank lines part the entries; values can stand above or below the compound they belong to.
Experiments:
LXFL 529L = details: lung cancer cell line; cited from earlier work
H-460 = details: lung cancer cell line; cited from earlier work
MCF-7 = details: mammary cancer cell line; cited from earlier work
SF-268 = details: CNS cancer cell line; cited from earlier work
tumor = details: cited from earlier work
gram-positive = details: cited from earlier work
H460 cells = test: Cell proliferation assay (resazurin, CellTiter-Blue), H460; format: cell-based; details: for pIC50: Homo sapiens, NCI-H460, 48 h, 2 days incubation, determined in triplicate; for cellular toxicity against H460 cells relative to the parent epoxide: relative to parent epoxide 1
Procedure: (§1) Cell Culture: Cell line NCI-H460, was purchased from American Type Culture Collection (ATCC). H460 cells were maintained in RPMI-1640 medium and HT-29 cells were maintained in McCoy's 5A medium, supplemented with 10% fetal bovine serum (Life Technologies, UK).
(§2) Cell Proliferation Assay: Cells were plated in black-walled 96-well plates (3000-4000 cells per well). Stock solutions of each compound were diluted serially and the resulting solutions were administrated to cells to achieve final concentrations of 1.1 nM to 2.5 μM in 100 μL total volume. After incubating at 37° C. (5% CO2) for 2 days (H460), 20 μL of resazurin solution (Promega CellTiter-Blue® Cell Viability Assay) was added to each well. After incubating at 37° C. for 4.0 h, the fluorescence (560 nm excitation/590 nm emission) was recorded using a microplate reader (SpectraMax i3) as a measure of viable cells. IC50 values, determined in triplicate, were calculated using a four-parameter logistic equation.

[1] = system: self-complementary duplex DNA oligonucleotide d(AATTACGTAATT); test: DNA alkylation of duplex oligonucleotide, gel electrophoresis and LC-MS; format: biochemical
From the text: In developing the compounds described herein, it was anticipated that reversible opening of the epoxide with a latent leaving group would reduce the reactivity of the warhead while attached to the antibody but would allow for reformation of the epoxide under appropriate conditions. After exploration of a variety of possible epoxide adducts using a potent analog (1, Me-ddx), it was discovered that halohydrin FSTs were not only readily synthesized under Lewis- or Brønsted-acid catalysis, but also reverted to the epoxide cleanly in pH 7.4 cell growth media at 37° C. (Scheme 7). […] The DNA-alkylating capability of the bromohydrin FST 3 in comparison to a set of FST analogs of varying potency by incubation with a self-complementary duplex DNA oligonucleotide d([…]) for 4 h at 23° C. then analysis by gel electrophoresis and LC-MS was investigated.

HT-29 (HER2−) = test: Cell proliferation assay, HT-29; format: cell-based; details: Homo sapiens
Procedure: as §1, §2

SK-BR-3 (HER2+) = test: Cell proliferation assay, SK-BR-3; format: cell-based; details: Homo sapiens
Procedure: as §2

NCI-N87 (HER2+) = test: Cell proliferation assay, NCI-N87; format: cell-based; details: Homo sapiens
[2] = Liberation of bromohydrin by immolative spacer cyclization in buffer; format: physicochemical
From the text: In order to prevent premature reversion to the epoxide, a system in which the trioxacarcin prodrug would be linked through the tertiary alcohol of the halohydrin was envisioned. Therefore, epoxide formation could only occur once the payload had been released from the antibody upon delivery to the cellular target. Despite recent advances in the field, technology for linkage through alcohol functional groups is limited. Synthesis of benzyl ether, ester, carbonate, carbamate, diphosphate, and silyl linkers at the tertiary alcohol of 3 (bromohydrin) through previously reported methods all failed. Indeed, the electron withdrawing substituents surrounding the halohydrin alcohol (two P-acetals, a y-acetal and a bromide) coupled with the steric encumbrance they impose prevented reaction of this alcohol with nearly all electrophiles evaluated. […] It was believed that this diamine spacer would release free bromohydrin after peptidase cleavage of the linker. Simultaneous Boc deprotection of both the phenol and amine with trifluoroacetic acid (TFA) provided the TFA salt of the amine 9 after concentration, which was evaluated immediately for liberation of bromohydrin 3. […] Modifications of the diamine spacer unit to increase the rate of cyclization were unsuccessful. […]

[3] = Compound Stability Assay (buffer, 37° C., LC-MS); format: physicochemical
Procedure: Compound Stability Assay: In a 1.5 mL screw-top conical plastic vial, the desired compound as a solution in DMSO (5 mM, 6 μL, 30 nmol) was mixed with a solution of N-acetylcysteine in DMSO (10 mM, 6 μL, […], 2 equiv) to quench the maleimide. The mixture was diluted with either pH 5.0 sodium acetate or pH 7.4 phosphate buffer containing 8 mM N-acetylcysteine (282 μL). 1-naphthalene acetic acid in DMSO (5 mM, 6 μL, 30 nmol) was added as an internal standard. In the case of testing free drug stability, no N-acetylcysteine solution was added and instead the amount of buffer added was increased an equivalent amount to compensate (288 μL total buffer). The vial was placed in a heating block at 37° C. and protected from direct light. 25 μL aliquots of the reaction mixture were removed at various time points and analyzed by LC-MS. LC-MS peaks were integrated within the Agilent LC-MS software and the areas of each peak were normalized to 1-napthalene acetic acid at 280 nm. Percent compound remaining is defined as the normalized peak area at a given time point divided by the normalized peak area at 0 hours×100%.

Cathepsin B = Cathepsin B (Homo sapiens, UniProt P07858); test: Release Kinetics Assay with Cathepsin B; format: biochemical; details: pH 5.0, 37° C.
Procedure: Release Kinetics Assay: In a 1.5 mL screw-top conical plastic vial, the desired compound as a solution in DMSO (5 mM, 6 μL, 30 nmol) was mixed with a solution of N-acetylcysteine in DMSO (10 mM, 6 μL, […], 2 equiv) to quench the maleimide. The mixture was diluted with pH 5.0 sodium acetate buffer containing 8 mM N-acetylcysteine (255 μL). 1-napthalene acetic acid in DMSO (5 mM, 6 μL, 30 nmol) was added as an internal standard. A 9.2 U/mL solution of Cathepsin B in pH 5.0 buffer was added. The vial was placed in a heating block at 37° C. and protected from direct light. 25 μL aliquots of the reaction mixture were removed at various time points and analyzed by LC-MS. LC-MS peaks were integrated within the Agilent LC-MS software and the areas of each peak were normalized to 1-napthalene acetic acid at 280 nm. Percent drug-linker remaining is defined as the normalized peak area at a given time point divided by the normalized peak area at 0 hours×100%.

Structure (SMILES): COc1c2c(c(O)c3c4c(c(C)cc13)[C@@H]1O[C@@]3(C(OC)OC)O[C@@H]1[C@@](O[C@H]1C[C@@H](O)[C@@](O)(C(C)=O)[C@H](C)O1)(O4)[C@@]31CO1)C(=O)[C@@H](O)C[C@@H]2O[C@H]1C[C@@](C)(O)[C@H](OC(C)=O)[C@H](C)O1 [Trioxacarcin A]
IC70 LXFL 529L (LXFL 529L): subnanmolar | IC70 H-460 (H-460): subnanmolar | IC70 MCF-7 (MCF-7): subnanmolar | IC70 SF-268 (SF-268): subnanmolar | anti-tumor activity in murine models (tumor): anti-tumor activity | gram-positive antibiotic activity (gram-positive): gram-positive antibiotic activity

Structure (SMILES): COc1c2c(c(O)c3c4c(c(C)cc13)C1OC3(C(OC)OC)OC1C(O[C@H]1C[C@@H](O)[C@@](O)(C(C)=O)[C@H](C)O1)(O4)C3(O)CO)C(=O)C(O)CC2O[C@H]1C[C@@](C)(O)[C@H](OC(C)=O)[C@H](C)O1 (stereo partly shown) [Trioxacarcin B]
anti-tumor activity in murine models (tumor): anti-tumor activity | gram-positive antibiotic activity (gram-positive): gram-positive antibiotic activity

Structure (SMILES): COc1c2c(c(O)c3c4c(c(C)cc13)C1OC3(C(OC)OC)OC1C(OC1CC(O)C(O)(C(C)O)C(C)O1)(O4)C31CO1)C(=O)C(O)CC2OC1COC(C)(OC(C)=O)C(C)(O)C1 (stereo not shown) [Trioxacarcin C]
anti-tumor activity in murine models (tumor): anti-tumor activity | gram-positive antibiotic activity (gram-positive): gram-positive antibiotic activity

Structure (SMILES): COc1c2c(c(O)c3c4c(c(C)cc13)C1OC3(C(OC)OC)OC1[C@@](OC)(O4)[C@@]3(O)CCl)C(=O)CCC2 (stereo partly shown) [compound 2]
potency relative to the bromohydrin (H460 cells; H460 cells, relative to bromohydrin 3): an order of magnitude less potent | pIC50 (H460 cells; H460 cells): 7.68

pIC50 (H460 cells; H460 cells): 8.70 | reversion to the epoxide during DNA incubation ([1]; 4 h at 23° C.): did not revert to the epoxide
Structure (SMILES): COc1c2c(c(O)c3c4c(c(C)cc13)C1OC3(C(OC)OC)OC1[C@@](OC)(O4)[C@@]3(O)CBr)C(=O)CCC2 (stereo partly shown) [compound 3]
cellular toxicity against H460 cells relative to the parent epoxide (H460 cells): no loss in cellular toxicity | DNA alkylation ([1]; incubation with d(AATTACGTAATT) for 4 h at 23° C.): did not alkylate DNA

pIC50 (H460 cells; H460 cells): 8.40 | pIC50 (HT-29 (HER2−)): 8.15 | pIC50 (SK-BR-3 (HER2+)): 8.40
Structure (SMILES): COc1c2c(c(O)c3c4c(c(C)cc13)C1OC3(C(OC)OC)OC1[C@@](OC)(O4)[C@@]3(O)CI)C(=O)CCC2 (stereo partly shown) [compound 4]
cellular toxicity against H460 cells relative to the parent epoxide (H460 cells): no loss in cellular toxicity | pIC50 (NCI-N87 (HER2+)): 9.00

Structure (SMILES): CNCCNC(=O)O[C@]1(CBr)C2(C(OC)OC)OC3c4c(C)cc5c(OC)c6c(c(O)c5c4O[C@]1(OC)C3O2)C(=O)CCC6 (stereo partly shown) [compound 9]
liberation of bromohydrin 3 through diamine spacer cyclization ([2]; 37° C., pH 7.4 or 5.0 buffer): no liberation of bromohydrin was observed

Structure (SMILES): CNCCCC(=O)O[C@]1(CBr)C2(C(OC)OC)OC3c4c(C)cc5c(OC)c6c(c(O)c5c4O[C@]1(OC)C3O2)C(=O)CCC6 (stereo partly shown) [compound 13]
liberation of the bromohydrin through ester spacer cyclization ([2]; pH 7.4 or 5.0, extended incubation at 37° C. or 50° C.): failed to liberate the bromohydrin

Structure (SMILES): COc1c2c(c(O)c3c4c(c(C)cc13)C1OC3(C(OC)OC)OC1[C@@](OC)(O4)[C@]3(CBr)OCN(CCS(C)(=O)=O)C(=O)OCc1ccc(NC(=O)[C@H](C)NC(=O)[C@@H](NC(=O)CCCCCN3C(=O)C=CC3=O)C(C)C)cc1)C(=O)CCC2 (stereo partly shown) [compound 19]
stability of drug-linker quenched with N-acetyl cysteine ([3]; 37° C., pH 7.4 buffer): stable for days | payload release upon exposure to Cathepsin B (Cathepsin B): excellent release kinetics; also recorded: rapidly liberated FST-bromohydrin payload 3

Structure (SMILES): COCCOCCOCCOCCOCCOCCOCCC(=O)NCCCC[C@H](NC(=O)CCOCCOCCOCCOCCN1C(=O)C=CC1=O)C(=O)N[C@H](C(=O)N[C@@H](C)C(=O)Nc1ccc(COC(=O)N(CCS(C)(=O)=O)CO[C@]2(CBr)C3(C(OC)OC)OC4c5c(C)cc6c(OC)c7c(c(O)c6c5O[C@]2(OC)C4O3)C(=O)CCC7)cc1)C(C)C (stereo partly shown) [compound 27]
stability of drug-linker at pH 5.0 and 7.4 ([3]; 37° C., pH 5.0 and pH 7.4): exceptionally stable | free drug released ([3]; after 1 week at pH 7.4, 37° C.): no detectable free drug released | payload release upon exposure to Cathepsin B (Cathepsin B): rapidly releases payload
